Test results taken from patent US9765087B2, “Benzimidazole derivatives” (ENANTA PHARMACEUTICALS, INC., priority 2009, dated 2017).

Each molecule was assayed on HCV 1a genotype replicon (assay: HCV replicon assay (qRT-PCR or luciferase), genotype 1a). Settings: Hepatitis C virus, Table 12, numeric values, read-out: 1a EC50.
Type: cell-based
Procedure: HCV replicon cell lines (kindly provided by R. Bartenschlager) isolated from colonies as described by Lohman et. al. (Lohman et al. (1999) Science 285: 110-113, expressly incorporated by reference in its entirety) and used for all experiments. The HCV replicon has the nucleic acid sequence set forth in EMBL Accession No.: AJ242651, the coding sequence of which is from nucleotides 1801 to 8406.
These cell lines were maintained at 37° C., 5% CO2, 100% relative humidity in DMEM (Cat#11965-084, Invitrogen), with 10% fetal calf serum (“FCS”, Invitrogen), 1% non-essential amino acids (Invitrogen), 1% of Glutamax (Invitrogen), 1% of 100× penicillin/streptomycin (Cat#15140-122, Invitrogen) and Geneticin (Cat#10131-027, Invitrogen) at 0.75 mg/ml or 0.5 mg/ml for 11-7 and Huh-luc/neo-ET cells, respectively.
EC50 values of single agent compounds and combinations were determined by HCV RNA detection using quantitative RT-PCR, according to the manufacturer's instructions, with a TAQMAN® One-Step RT-PCR Master Mix Reagents Kit (Cat#AB 4309169, Applied Biosystems) on an ABI Model 7500 thermocycler. The TaqMan primers used for detecting and quantifying HCV RNA were obtained from Integrated DNA Technologies. HCV RNA was normalized to GAPDH RNA levels in drug-treated cells, which is detected and quantified using the Human GAPDH Endogenous Control Mix (Applied Biosystems, AB 4310884E). Total cellular RNA is purified from 96-well plates using the RNAqueous 96 kit (Ambion, Cat# AM1812). Chemical agent cytotoxicity is evaluated using an MTS assay according to the manufacturer's directions (Promega).
Since clinical drug resistance often develops in viral infections following single agent therapies, there is a need to assess the additive, antagonistic, or synergistic properties of combination therapies. We used the HCV replicon system to assess the potential use of the compound of the present invention or in combination therapies with Interferon alpha, cyclosporine analogs and inhibitors targeting other HCV proteins. The acute effects of a single or combinations of drugs are studied in the “Huh-luc/neo-ET” replicon with each chemical agent titrated in an X or Y direction in a 6 point two-fold dilution curve centered around the EC50 of each drug. Briefly, replicon cells are seeded at 7,000 cells per well in 90 ul DMEM (without phenol red, Invitrogen Cat.#31053-036) per well with 10% FCS, 1% non-essential amino acids, 1% of Glutamax and 1% of 100× penicillin/streptomycin and incubated overnight at 37° C., 5% CO2, 100% relative humidity. 16-20 h after seeding cells, test compounds previously solubilized and titrated in dimethyl sulfoxide (“DMSO”) from each X plate and Y plate are diluted 1:100 in DMEM (without phenol red, Invitrogen Cat.#31053-036) with 10% FCS, 1% non-essential amino acids, 1% of Glutamax and 1% of 100× penicillin/streptomycin and added directly to the 96-well plate containing cells and growth medium at a 1:10 dilution for a final dilution of compound and DMSO of 1:1000 ([…] final concentration). Drug treated cells are incubated at 37° C., 5% CO2, 100% relative humidity for 72 hours before performing a luciferase assay using 100 ul per well BriteLite Plus (Perkin Elmer) according to the manufacturer's instructions. Data analysis utilizes the method published by Prichard and Shipman (Antiviral Research, 1990. 14:181-205). Using this method, the combination data are analyzed for antagonistic, additive, or synergistic combination effects across the entire combination surface created by the diluted compounds in combination.
The compounds of the present invention can be effective against the HCV 1b genotype. It should also be understood that the compounds of the present invention can inhibit multiple genotypes of HCV. In one embodiment compound of the present invention are active against the 1a, 1b, 2a, 2b, 3a, 4a, and 5a genotypes. […] EC50 ranges against HCV 1b and 1a are as follows: A>10 nM; B1-10 nM; C<1 nM.
Work on COC(=O)N[C@H](C(=O)N1CC2(CC2)C[C@H]1c1nc2ccc(C#Cc3ccc(-c4cnc([C@@H]5CCCN5C(=O)[C@H](NC(=O)OC)c5cccc(OC)c5)[nH]4)cc3)cc2[nH]1)C(C)C [Example 597] yielded an EC50 of 0.227 nM.
With COC(=O)N[C@H](C(=O)N1CC2(CC2)C[C@H]1c1nc2ccc(C#Cc3ccc(-c4cnc([C@@H]5CCCN5C(=O)[C@H](NC(=O)OC)c5cccs5)[nH]4)cc3)cc2[nH]1)C(C)C [Example 663] the EC50 was 0.295 nM.
In the case of COC(=O)N[C@H](C(=O)N1CC2(CC2)C[C@H]1c1ncc(-c2ccc(C#Cc3ccc4nc([C@@H]5CC6(CC6)CN5C(=O)[C@H](NC(=O)OC)c5cccc(OC)c5)[nH]c4c3)cc2)[nH]1)C(C)C [Example 654], the EC50 is reported as 0.185 nM.

Same assay, conditions: Hepatitis C virus, Table 12, range class, read-out: 1a EC50 Range
COC(=O)N[C@H](C(=O)N1C[C@H](CF)C[C@H]1c1ncc(-c2ccc(C#Cc3ccc4nc([C@@H]5C[C@@]6(CCCO6)CN5C(=O)[C@@H](NC(=O)OC)C(C)C)[nH]c4c3)cc2)[nH]1)C(C)C [Example 634] showed an EC50 of under 1 nM.
In the case of COC(=O)N[C@H](C(=O)N1C[C@@H]2C[C@@H]2[C@H]1c1nc2cc(C#Cc3ccc(-c4c[nH]c([C@@H]5CCCN5C(=O)[C@@H](NC(=O)OC)C(C)C)n4)cc3)ccc2[nH]1)C(C)C [Example 690], the EC50 is reported as 1 to 10 nM.
COC(=O)N[C@H](C(=O)N1CC2(CC2)C[C@H]1c1ncc(-c2ccc(C#Cc3ccc4nc([C@@H]5CC6(CC6)CN5C(=O)[C@H](NC(=O)OC)[C@H](C)c5ccccc5)[nH]c4c3)cc2)[nH]1)C(C)C [Example 601] was tested, and the EC50 was over 10 nM.
COC(=O)N[C@H](C(=O)N1CC2(CC2)C[C@H]1c1ncc(-c2ccc(C#Cc3ccc4nc([C@@H]5CC6(CC6)CN5C(=O)[C@@H](NC(=O)OC)C5CCCCC5)[nH]c4c3)cc2)[nH]1)C(C)C [Example 675] was tested, and the EC50 was under 1 nM.
Work on COC(=O)N[C@H](C(=O)N1CC2(CC2)C[C@H]1c1ncc(-c2ccc(C#Cc3ccc4nc([C@@H]5CC6(CC6)CN5C(=O)[C@H](NC(=O)OC)c5cccnc5)[nH]c4c3)cc2)[nH]1)C(C)C [Example 610] yielded an EC50 of under 1 nM.
Work on COC(=O)N[C@H](C(=O)N1CC2(CC2)C[C@H]1c1ncc(-c2ccc(C#Cc3ccc4nc([C@@H]5CC6(CC6)CN5C(=O)[C@H](NC(=O)OC)c5ccc(OC)cc5)[nH]c4c3)cc2)[nH]1)C(C)C [Example 585] yielded an EC50 of 1 to 10 nM.
Work on COC(=O)N[C@H](C(=O)N1CC2(CC2)C[C@H]1c1nc(-c2ccc(C#Cc3ccc4[nH]c([C@@H]5CC6(CC6)CN5C(=O)[C@@H](NC(=O)OC)C(C)C)nc4c3)cc2)c(C2CC2)[nH]1)C(C)C [Example 591] yielded an EC50 of under 1 nM.
For COC(=O)N[C@H](C(=O)N1CC2(CC2)C[C@H]1c1nc2ccc(C#Cc3ccc(-c4cnc([C@@H]5CCCN5C(=O)[C@H](NC(=O)OC)c5ccc(F)cc5)[nH]4)cc3)cc2[nH]1)C(C)C [Example 664], the EC50 was under 1 nM.
COC(=O)N[C@H](C(=O)N1CC2(CC2)C[C@H]1c1nc2ccc(C#Cc3ccc(-c4cnc([C@@H]5CCCN5C(=O)OC(C)(C)C)[nH]4)cc3)cc2[nH]1)C(C)C [Compound 666] showed an EC50 of over 10 nM.
With COC(=O)N[C@@H](C(=O)N1CC2(CC2)C[C@H]1c1ncc(-c2ccc(C#Cc3ccc4nc([C@@H]5CC6(CC6)CN5C(=O)[C@H](NC(=O)OC)c5ccc(Cl)cc5)[nH]c4c3)cc2)[nH]1)c1ccc(Cl)cc1 [Example 611] the EC50 was over 10 nM.
Molecule CC[C@@H](C)[C@H](NC(=O)OC)C(=O)N1CC2(CC2)C[C@H]1c1nc2ccc(C#Cc3ccc(-c4cnc([C@@H]5CC6(CC6)CN5C(=O)[C@@H](NC(=O)OC)C(C)C)[nH]4)cc3)cc2[nH]1 [Example 656] has an EC50 of under 1 nM.
Work on COC(=O)N[C@H](C(=O)N1CC2(CC2)C[C@H]1c1nc2ccc(C#Cc3ccc(-c4cnc([C@@H]5CCCN5C(=O)[C@@H](NC(=O)OC)C5CCCCC5)[nH]4)cc3)cc2[nH]1)C(C)C [Example 607] yielded an EC50 of under 1 nM.
With COC(=O)N[C@H](C(=O)N1CC2(CC2)C[C@H]1c1ncc(-c2ccc(C#Cc3ccc4nc([C@@H]5CC6(CC6)CN5C(=O)[C@H](NC(=O)OC)c5cccc(Cl)c5)[nH]c4c3)cc2)[nH]1)C(C)C [Example 584] the EC50 was under 1 nM.
Work on COC(=O)N[C@H](C(=O)N1CC2(CC2)C[C@H]1c1ncc(-c2ccc(C#Cc3ccc4nc([C@@H]5CC6(CC6)CN5C(=O)[C@@H](NC(=O)OC)[C@@H](C)OC)[nH]c4c3)cc2)[nH]1)C(C)C [Example 589] yielded an EC50 of under 1 nM.
Molecule COC(=O)N[C@H](C(=O)N1CCC[C@H]1c1ncc(-c2ccc(C#Cc3ccc4nc([C@@H]5C[C@@H](C6CC6)CN5C(=O)[C@@H](NC(=O)OC)C(C)C)[nH]c4c3)cc2)[nH]1)C(C)C [Example 572] has an EC50 of under 1 nM.
Molecule COC(=O)N[C@H](C(=O)N1CC2(CC2)C[C@H]1c1ncc(-c2ccc(C#Cc3ccc4nc([C@@H]5CC6(CC6)CN5C(=O)[C@H](NC(=O)OC)c5ccccc5Cl)[nH]c4c3)cc2)[nH]1)C(C)C [Example 651] has an EC50 of under 1 nM.
COC(=O)N[C@H](C(=O)N1CC2(CC2)C[C@H]1c1nc2ccc(C#Cc3ccc(-c4cnc([C@@H]5CC6(CC6)CN5C(=O)[C@@H](N)C(C)C)[nH]4)cc3)cc2[nH]1)C(C)C [Example 624] showed an EC50 of over 10 nM.
Molecule COC(=O)N[C@H](C(=O)N1CC2(CC2)C[C@H]1c1ncc(-c2ccc(C#Cc3ccc4nc([C@@H]5CC6(CC6)CN5C(=O)[C@H](NC(=O)OC(C)(C)C)[C@H](C)c5ccccc5)[nH]c4c3)cc2)[nH]1)C(C)C [Example 669] has an EC50 of over 10 nM.
Molecule COC(=O)N[C@H](C(=O)N1C[C@@H](CF)C[C@H]1c1ncc(-c2ccc(C#Cc3ccc4nc([C@@H]5C[C@@]6(CCCO6)CN5C(=O)[C@@H](NC(=O)OC)C(C)C)[nH]c4c3)cc2)[nH]1)C(C)C [Example 566] has an EC50 of under 1 nM.
With COC(=O)N[C@H](C(=O)N1CC2(CC2)C[C@H]1c1nc2ccc(C#Cc3ccc(-c4cnc([C@@H]5CCCN5C(=O)[C@@H](NC(=O)OC)[C@@H](C)OC)[nH]4)cc3)cc2[nH]1)C(C)C [Example 598] the EC50 was under 1 nM.
Molecule COC(=O)N[C@H](C(=O)N1CC2(CC2)C[C@H]1c1nc2ccc(C#Cc3ccc(-c4cnc([C@@H]5CCCN5C(=O)[C@H](NC(=O)OC)c5ccsc5)[nH]4)cc3)cc2[nH]1)C(C)C [Example 596] has an EC50 of under 1 nM.
COC(=O)N[C@H](C(=O)N1CC2(CC2)C[C@H]1c1nc(-c2cccnc2)c(-c2ccc(C#Cc3ccc4nc([C@@H]5CC6(CC6)CN5C(=O)[C@@H](NC(=O)OC)C(C)C)[nH]c4c3)cc2)[nH]1)C(C)C [Example 662] was tested, and the EC50 was under 1 nM.
For COC(=O)N[C@H](C(=O)N1CC2(CC2)C[C@H]1c1nc2ccc(C#Cc3ccc(-c4cnc([C@@H]5CCCN5C(=O)[C@H](NC(=O)OC)c5ccco5)[nH]4)cc3)cc2[nH]1)C(C)C [Example 682], the EC50 was under 1 nM.
COC(=O)N[C@H](C(=O)N1CC2(CC2)C[C@H]1c1nc(-c2ccc(C#Cc3ccc4[nH]c([C@@H]5CC6(CC6)CN5C(=O)[C@@H](NC(=O)OC)C(C)C)nc4c3)cc2)c(Br)[nH]1)C(C)C [Example 657] showed an EC50 of under 1 nM.
COC(=O)N[C@H](C(=O)N1CC2(CC2)C[C@H]1c1ncc(-c2ccc(C#Cc3ccc4nc([C@@H]5CC6(CC6)CN5C(=O)[C@H](NC(=O)OC)C5CCCCC5)[nH]c4c3)cc2)[nH]1)C(C)C [Example 667] gave an EC50 of 1 to 10 nM.
In the case of COC(=O)N[C@H](C(=O)N1CC2(CC2)C[C@H]1c1nc2ccc(C#Cc3ccc(-c4cnc([C@@H]5CCCN5C(=O)[C@H](NC(=O)OC)c5cccc(F)c5)[nH]4)cc3)cc2[nH]1)C(C)C [Example 600], the EC50 is reported as under 1 nM.
COC(=O)N[C@H](C(=O)N1CC2(CC2)C[C@H]1c1nc2ccc(C#Cc3ccc(-c4cnc([C@@H]5CC6(CC6)CN5C(=O)[C@@H](NC(=O)OC)C5CCOCC5)[nH]4)cc3)cc2[nH]1)C(C)C [Example 658] gave an EC50 of under 1 nM.
